# What was measured:
# [1] = biological target: O-acyltransferase (Oryctolagus cuniculus, UniProt G1SFD9); assay: Inhibition against acyl coenzyme A:cholesterol acyltransferase derived from rabbit intestine microsomes
# [2] = test system: Rattus norvegicus; assay: Cholesterol lowering activity in rats after a dose of 4 mg/kg once a day for 2 days; type: functional
# [3] = test system: Rattus norvegicus; assay: Cholesterol lowering activity in rats after a dose of 1 mg/kg once a day for 2 days; type: functional
# [4] = biological target: T1, Acyl-CoA:cholesterol acyltransferase (Oryctolagus cuniculus, UniProt Q95214); assay: Inhibition against acyl coenzyme A:cholesterol acyltransferase derived from rabbit aorta homogenate; type: tissue-based
# T1 sequence (Q95214 whole entry): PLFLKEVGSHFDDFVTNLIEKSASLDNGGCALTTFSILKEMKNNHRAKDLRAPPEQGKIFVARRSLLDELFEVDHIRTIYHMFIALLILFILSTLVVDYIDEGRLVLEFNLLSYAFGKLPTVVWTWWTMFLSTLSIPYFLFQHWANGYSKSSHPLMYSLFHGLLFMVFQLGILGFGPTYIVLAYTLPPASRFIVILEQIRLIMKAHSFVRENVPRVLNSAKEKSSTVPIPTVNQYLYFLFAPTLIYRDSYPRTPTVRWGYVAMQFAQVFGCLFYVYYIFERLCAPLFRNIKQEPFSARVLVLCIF
# Sequence of O-acyltransferase (G1SFD9 1-524): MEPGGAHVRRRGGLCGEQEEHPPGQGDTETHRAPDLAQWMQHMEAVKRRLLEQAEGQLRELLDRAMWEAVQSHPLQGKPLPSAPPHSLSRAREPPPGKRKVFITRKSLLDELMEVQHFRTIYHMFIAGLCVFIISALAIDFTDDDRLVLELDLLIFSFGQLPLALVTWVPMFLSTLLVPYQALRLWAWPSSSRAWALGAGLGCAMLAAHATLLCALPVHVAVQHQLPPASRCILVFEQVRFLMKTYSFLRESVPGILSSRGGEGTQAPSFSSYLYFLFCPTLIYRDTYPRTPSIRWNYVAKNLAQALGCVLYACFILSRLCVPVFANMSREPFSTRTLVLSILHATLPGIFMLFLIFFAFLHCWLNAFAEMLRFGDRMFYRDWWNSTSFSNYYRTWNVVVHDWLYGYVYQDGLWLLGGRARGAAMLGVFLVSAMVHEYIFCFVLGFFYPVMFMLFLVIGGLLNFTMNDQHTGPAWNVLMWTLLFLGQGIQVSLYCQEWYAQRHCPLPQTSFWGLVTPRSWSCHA
SMILES,IC50 [1] [nM],IC50 [4] [nM],Cholesterol reduction [2] [%],Cholesterol reduction [3] [%]
CCCCCNC(=O)Nc1c(C)cccc1OCCCn1cnc(-c2ccccc2)c1COC,480,290,-47,18
CCCCCNC(=O)Nc1c(O)cccc1OCCCn1cnc(-c2ccccc2)c1C,460,960,–,–
CCCCCNC(=O)Nc1c(OC)cccc1OCCCn1cnc(-c2ccccc2)c1C,90,220,-34,–
CCCCCNC(=O)Nc1c(C)cccc1S(=O)(=O)CCCn1cnc(-c2ccccc2)c1C,600,730,–,–
Cc1cccc(OCCCn2cnc(-c3ccccc3)c2C)c1NC(=O)NCC(C)(C)C,210,140,–,-64
CCCCCNC(=O)Nc1c(C)cccc1C[S+]([O-])CCn1cnc(-c2ccccc2)c1C (stereo not drawn),> 1000,440,–,–
CCCCCNC(=O)Nc1c(C)cccc1OCCCn1cnc(-c2ccc(NS(C)(=O)=O)cc2)c1,> 1000,> 1000,–,–
CCCCNC(=O)Nc1c(C)cccc1OCCCn1cnc(-c2ccccc2)c1Cl,55,210,–,-40
CCCCCNC(=O)Nc1c(C)cccc1OCCCn1cnc(-c2ccccc2S(C)(=O)=O)c1,160,410,-19,–
Cc1cccc(OCCCn2cnc(-c3ccccc3)c2CO)c1NC(=O)NCCC(C)C,230,190,–,-52
CCCCCNC(=O)Nc1c(NC)cccc1OCCCn1cnc(-c2ccccc2)c1C,150,600,-35,–
CCCCCNC(=O)Nc1c(C)cccc1[S+]([O-])CCCn1cnc(-c2ccccc2)c1C (stereo not drawn),> 1000,> 1000,–,–
CCCCCNC(=O)Nc1c(C)cccc1OCCCn1cnc(-c2ccccc2)c1C(N)=O,180,> 1000,–,-20
CCCCCNC(=O)Nc1c(C)cccc1OCCCn1cnc(-c2ccc(Cl)cc2)c1,120,260,-59,-43
CCCCCNC(=O)Nc1c(C)cccc1OCCCn1cnc(-c2ccccc2NS(C)(=O)=O)c1,450,240,-39,–
CCCCCNC(=O)Nc1c(C)cccc1OCCCn1cnc(-c2cccc([N+](=O)[O-])c2)c1,130,290,–,-15
CCCCNC(=O)Nc1c(C)cccc1OCCCn1cnc(-c2ccccc2)c1CO,190,590,–,-21
CCCCCNC(=O)Nc1c(C#N)cccc1OCCCn1cnc(-c2ccccc2)c1C,> 1000,1900,–,–
CCCCCNC(=O)Nc1c(NS(=O)(=O)C(F)(F)F)cccc1OCCCn1cnc(-c2ccccc2)c1C,> 1000,> 10000,–,–

SMILES,IC50 [1] [nM],IC50 [4] [nM],Cholesterol reduction [2] [%],Cholesterol reduction [3] [%]
CCCCNC(=O)Nc1c(C)cccc1OCCCn1cnc(-c2ccccc2)c1C,73,480,-45,-34
CCCCCNC(=O)Nc1ccccc1OCCCn1cnc(-c2ccccc2)c1C,230,390,3.9,–
CCCCCNC(=O)Nc1c(C)cccc1C(=O)NCCn1cnc(-c2ccccc2)c1C,97,280,-25,–
CCCCCNC(=O)Nc1c(C)cccc1OCCCn1cnc(-c2cccc(NS(C)(=O)=O)c2)c1,> 1000,> 1000,–,–
CCCCCNC(=O)Nc1c(C)cccc1OCC(O)Cn1cnc(-c2ccccc2)c1C (stereo not drawn),160,170,-43,–
CCCCCNC(=O)Nc1c(C)cccc1OCCCn1cnc2c1CCc1ccccc1-2,220,220,-56,-30
CCCCCNC(=O)Nc1c(C)cccc1OCCCn1cnc(-c2ccccc2)c1CN(C)C,670,310,-10,–
CCCCCNC(=O)Nc1c(C)cccc1OCCCn1cnc(-c2ccc([N+](=O)[O-])cc2)c1,70,560,-33,-31
CCCCCNC(=O)Nc1c(C)cccc1OCCCn1cnc(-c2ccccc2)c1,250,310,-52,-28
CCCCNC(=O)Nc1c(C)cccc1OCCCn1cnc(-c2ccccc2)c1,–,310,–,-7
CCCCCNC(=O)Nc1c(C)cccc1OCCCn1cnc(-c2c(OC)cc(OC)cc2OC)c1,> 1000,> 1000,–,–
Cc1cccc(OCCCn2cnc(-c3ccccc3)c2)c1NC(=O)NCCC(C)C,230,370,–,-41
CCCCCNC(=O)Nc1c(CN(C)C)cccc1OCCCn1cnc(-c2ccccc2)c1C,1300,2600,–,–
CCCCCNC(=O)Nc1c(C)cccc1OCCCn1cnc(-c2ccccc2)c1C(=O)O,> 1000,> 1000,–,–
CCCCCNC(=O)Nc1c(C)cccc1OCCCn1cnc(-c2cc(OC)c(OC)c(OC)c2)c1,510,900,–,–
CCCCCNC(=O)Nc1c(NS(C)(=O)=O)cccc1OCCCn1cnc(-c2ccccc2)c1C,140,480,3.6,–
CCCCCNC(=O)Nc1c(C)cccc1OCCCn1cnc(-c2ccccc2)c1CS(C)(=O)=O,410,> 1000,–,–
CCCCCNC(=O)Nc1c(N)cccc1OCCCn1cnc(-c2ccccc2)c1C,100,590,-21,–

# The next molecules have a lower IC50 [4] than those just listed; values first:
IC50 [1] [nM],IC50 [4] [nM],SMILES,Cholesterol reduction [2] [%],Cholesterol reduction [3] [%]
570,70,CCCCCNC(=O)Nc1c(C)cccc1CSCCn1cnc(-c2ccccc2)c1C,-11,–
140,100,Cc1cccc(OCCCn2cnc(-c3ccccc3)c2C)c1NC(=O)NCCC(C)C,-63,-59
77,86,CCCCCNC(=O)Nc1c(C)cccc1SCCCn1cnc(-c2ccccc2)c1C,-7,–
–,84,CCCCCNC(=O)Nc1c(C)cccc1OCCCn1cnc(-c2ccccc2)c1Cl,–,-41
170,79,CCCCCNC(=O)Nc1c(C)cccc1OCCCn1cnc(-c2ccccc2)c1CC,-49,-28
320,73,Cc1cccc(OCCCn2cnc(-c3ccccc3)c2)c1NC(=O)NCC(C)(C)C,–,-46
880,100,CCCCCNC(=O)Nc1c(C)cccc1COCCn1cnc(-c2ccccc2)c1C,2,–
280,19,Cc1cccc(OCCCn2cnc(-c3ccccc3)c2C(C)C)c1NC(=O)NCCC(C)C,–,-40
71,45,CCCCCNC(=O)Nc1c(OCCCn2cnc(-c3ccccc3)c2C)cccc1C(C)C,-59,-40
73,100,CCCCCNC(=O)Nc1c(Cl)cccc1OCCCn1cnc(-c2ccccc2)c1C,-49,–
150,55,CCCCCNC(=O)Nc1c(C)cccc1OCCCn1cnc(-c2ccccc2)c1C(=O)OCC,–,–
160,63,CCCCCNC(=O)Nc1c(C)cccc1OCCCn1cnc(-c2ccccc2)c1CCC,-56,-49
80,44,CCCCCNC(=O)Nc1c(CC)cccc1OCCCn1cnc(-c2ccccc2)c1C,-60,-51
140,88,Cc1cccc(OCCCn2cnc(-c3ccccc3)c2Cl)c1NC(=O)NCCC(C)C,–,-59
140,50,CCCCCNC(=O)Nc1c(OCCCn2cnc(-c3ccccc3)c2C)cccc1S(C)(=O)=O,-33,–
200,48,Cc1cccc(OCCCn2cnc(-c3ccccc3)c2Cl)c1NC(=O)NCC(C)(C)C,–,-43
260,100,CCCCCNC(=O)Nc1c(C)cccc1OCCCn1cnc(-c2ccccc2C)c1,-48,-25
170,98,CCCCCNC(=O)Nc1c(CCC)cccc1OCCCn1cnc(-c2ccccc2)c1C,-50,-34
220,72,CCc1c(-c2ccccc2)ncn1CCCOc1cccc(C)c1NC(=O)NCCC(C)C,–,-46
> 1000,90,CCCCCNC(=O)Nc1c(C)cccc1CS(=O)(=O)CCn1cnc(-c2ccccc2)c1C,–,–
69,71,CCCCCNC(=O)Nc1c(F)cccc1OCCCn1cnc(-c2ccccc2)c1C,-30,–
460,68,CCc1c(-c2ccccc2)ncn1CCCOc1cccc(C)c1NC(=O)NCC(C)(C)C,–,-55
44,60,CCCCCNC(=O)Nc1c(OCCCn2cnc(-c3ccccc3)c2C)cccc1[N+](=O)[O-],-52,–
230,19,CCCCCNC(=O)Nc1c(OCCCn2cnc(-c3ccccc3)c2C)cccc1SC,–,–
